Several values for one entry are separate records, joined by “and”; a condition that tells them apart may be missing. Equal values may be shown once. Read-outs that look alike come from different tables or passages of the source.
How the values were obtained:
[1] = test system: weaned piglets (pigs of Rattlerow Seghers origin); assay type: in vivo; parameters: dG / End BW: unit not given here
Text: The setup of the experiments described below is to assess the influence of DMG on the performance in model species for pigs: mortality, feed conversion ratio (FCR), daily growth (dG), body weight (BW).
To examine all the effects associated with the supplementation of dimethylglycine (DMG) in pig feed, a test was setup with pigs of Rattlerow Seghers origin as model species. In this feeding trial 60 weaned piglets of even sex distribution were kept for 42 days. Teeth of piglets were clipped and male piglets were neutered during the first week after birth. At the beginning of the test the piglets were ad random divided per sex in 20 pens with 3 piglets per pen, reckoning even weight distribution at pen level. The piglets were fed with one type of feed from the first day on till the end of the test period. The type of feed was attributed on a random basis to the different housings. The control feed was based on a commercial piglet feed enriched with 5% corn oil to increase the oxidative stress in the feed. The feed had the following composition: 91% dry matter, 5% ash, 18% crude protein, 8% crude fat, 4% crude fibre and 56% other carbohydrate. It has a (calculated) metabolizable energy value of about 13.9 MJ/kg.
In the second type of feed 500mg of DMG was added per kilogram to the same composition of feed as described for the control feed. Over the entire test period, the pigs consumed on average about 290 mg DMG per piglet per day. The housing of the piglets consisted out of slatted floor pig pens of 1.05 m×1.7 m with a total surface of 1.785 m^2. Feed and water were ad libitum available at all times.
Each piglet was weighted after overnight fasts at 4 times, namely at days 0, 14, 29 and 42. The daily growth for the total growth period (dG) as well as daily growth during the three periods (between the start and the fourteenth day (dGI), between the fourteenth and the twenty-ninth day (dGII) and between the twenty-ninth day and the forty-second day (dGIII)) was calculated for each animal. The feed intake for each pen was also measured during these periods. The feed conversion ratio was calculated for each of the pens for both the growth period excluding the first two weeks (FRCII+III) and for the total growth period (FRC). This feed conversion ratio was calculated by dividing the total feed consumption by the weight gain of the piglets during the entire experiment.

growing broilers = settings: DMG supplementation; cited from earlier work
[2] = test system: male grower-finisher pigs exposed to mycoplasmal infections; settings: cited from earlier work
broilers = settings: diet supplemented with pangamic acid; cited from earlier work

With `CN(C)CC(=O)O` [DMG, N,N-dimethylglycine] the “End BW” value ([1]; Barrow, DMG 500 ppm, mean ± SD) was 23.4 ± 0.86, the dG ([1]; Barrow, DMG 500 ppm, mean ± SD) was 356 ± 20 and the “FCRII + III” value ([1]; Barrow, excluding the first two weeks, DMG 500 ppm, mean ± SD) was 1.71 ± 0.12. The “FCRII + III, DMG-effect” value ([1]; Barrow, excluding the first two weeks, vs control) was −6.2%, the FCR ([1]; Barrow, total growth period, DMG 500 ppm, mean ± SD) was 1.80 ± 0.09 and the “FCR, DMG-effect” value ([1]; Barrow, total growth period, vs control) was −8.4%. The “End BW” value ([1]; Gilt, DMG 500 ppm, mean ± SD) was 19.3 ± 1.64, the dG ([1]; Gilt, DMG 500 ppm, mean ± SD) was 271 ± 39 and the “FCRII + III” value ([1]; Gilt, excluding the first two weeks, DMG 500 ppm, mean ± SD) was 1.74 ± 0.09. The “FCRII + III, DMG-effect” value ([1]; Gilt, excluding the first two weeks, vs control) was −8.9%, the FCR ([1]; Gilt, total growth period, DMG 500 ppm, mean ± SD) was 1.93 ± 0.16 and the “FCR, DMG-effect” value ([1]; Gilt, total growth period, vs control) was −3.6%. The “End BW, DMG-effect” value ([1]; Gilt, vs control) was −7.0%, the “dG, DMG-effect” value ([1]; Gilt, vs control) was −11.0% and the dGI ([1]; barrows and gilts, daily growth day 0-14, DMG 500 mg/kg feed, mean ± SD) was 94 ± 58 g/day. For the same compound, the dGII ([1]; barrows and gilts, daily growth day 14-29, DMG 500 mg/kg feed, mean ± SD) was 365 ± 65 g/day, the dGIII ([1]; barrows and gilts, daily growth day 29-42, DMG 500 mg/kg feed, mean ± SD) was 491 ± 118 g/day and the “dGI, DMG-effect” value ([1]; barrows and gilts, day 0-14, vs control) was −7.0%. For the same compound, the “dGII, DMG-effect” value ([1]; barrows and gilts, day 14-29, vs control) was “+8.1%”, the “dGIII, DMG-effect” value ([1]; barrows and gilts, day 29-42, vs control) was “+2.1%” and the End body weight ([1]; barrows and gilts, day 42, DMG 500 mg/kg feed, mean ± SD) was 21.4 ± 2.46 kg. The “FCRII + III, DMG-effect” value ([1]; barrows and gilts, excluding the first two weeks, vs control) was −7.6%, the “FCRII + III” value ([1]; barrows and gilts, growth period excluding the first two weeks, DMG 500 mg/kg feed, mean ± SD) was 1.72 ± 0.10 and the “improvement in feed conversion ratio (lower FCR)” value ([1]; barrows and gilts, growth period excluding the first two weeks, vs control, given unsigned) was 7.6%. The “FCR (feed conversion ratio)” value ([1]; barrows and gilts, total growth period, DMG 500 mg/kg feed, mean ± SD) was 1.87 and 1.87 ± 0.14, the “FCR, DMG-effect” value ([1]; barrows and gilts, total growth period, vs control) was −5.9% and the “improvement in feed conversion ratio (lower FCR)” value ([1]; barrows and gilts, total growth period, vs control, given unsigned) was 5.9%. The “Daily growth (dG)” value ([1]; barrows and gilts, total period day 0-42, DMG 500 mg/kg feed, mean ± SD) was 314 ± 53 g/day, the “improvement in feed conversion ratio (lower FCR)” value ([1]; barrows, total growth period, vs control, given unsigned) was 8.4% and the “improvement in feed conversion ratio (FCRII+III, lower)” value ([1]; gilts, growth period excluding the first two weeks, vs control, given unsigned) was 8.9%. The “improvement in feed efficiency (lower FCR)” value ([1]; gilts, total growth period, vs control, only numerically, given unsigned) was 3.6%, the “health of the animals during the experiment (clinical signs of disease)” value ([1]; pig, in vivo) was “remained healthy” and the body weight gain (growing broilers) was “not an important impact”. For the same compound, the feed conversion rate (growing broilers) was “decreased”.
In the case of `C[N+](C)(C)CC(=O)O` [betaine], the “lung area damaged by mycoplasmal infection” value ([2]; 0.125% betaine in feed) is listed as “significant reduction” and the “growth rate and other performance characteristics, such as the feed conversion ratio” value ([2]; growing pigs exposed to mycoplasmal infections) is listed as “improvements”.
In the case of `CN(C)CC(=O)OC[C@@H](O)[C@@H](O)[C@H](O)[C@@H](O)C(=O)O` [pangamic acid, 6-O-(dimethylaminoacetyl)-D-gluconic acid], the body weight gain (broilers) is given as “reduction” and the feed conversion rate (broilers) is given as “not affected”.
